Laboratory results reported in patent US8022091B2, “Triazole derivative” (Taisho Pharmaceutical Co., Ltd., priority 2006, dated 2011).

Target: T1, human Edg-1 (S1P1) (Homo sapiens, UniProt P21453)
T1 construct: expressed in transfected cells; host or cells: HEK-293
Experiment: S1P1 binding assay: inhibition of [33P]-S1P binding to membrane fraction of HEK-293 cells transferred with the human Edg-1 (S1P1) gene
Protocol: The membrane fraction was obtained by treating the cells with a solubilizing buffer (1 mM Tris/HCl, pH 7.2) for 10 minutes on ice, centrifuging at 1000×g for 5 minutes to remove insoluble fractions, and then centrifuging at 40000×g for 30 minutes at 4° C. The resulting membrane fraction was dissolved in a binding buffer (20 mM Tris-HCl, pH 7.4, 100 mM NaCl, 15 mM NaF, 2 mM deoxypyridoxine, 4 mg/mL fatty acid-free BSA), and then [^33P]-S1P (manufactured by ARC, final concentration 0.1 nM) and a DMSO solution (final concentration of the compound 10^−5M, final concentration of DMSO 0.1%) of the test compound were added. Thereafter, the mixture was stirred and then treated for one hour at 30° C. Using a harvester, the membrane fraction was harvested onto unifilter-96 GF/C filter (manufactured by Perkin Elmer), washing was carried out four times with the binding buffer, and the filter was dried. Twenty five μL Microscint 0 (manufactured by Perkin Elmer) was added, and radioactivity was measured using Top Count NXT (manufactured by Packard) to calculate the amount (A) of [^33P]-S1P bound to the membrane fraction at the time when the compound was added.
The same procedure was carried out in the absence of the test compound, and the amount (B) of [^33P]-S1P bound was calculated. Further, the same procedure was carried out in the absence of the test compound by use of HEK-293 cells to which no Edg-1 (S1P1) gene was introduced, and the background amount (C) of [^33P]-S1P bound was calculated.
Inhibition rate (%)=[1−(A−C)/(B−C)]×100
Further, concentrations (IC50) at the time when binding in the absence of the test compound was inhibited by 50% were calculated. The membrane system binding assay was carried out in the presence of test compounds with various concentrations, and the Edg-1 (S1P1) binding inhibition rates were calculated using the equation above. Then, IC50 values were calculated using Origin (Lightstone Corp.), a software for data analysis.

[1] = test compound at 10 μM, inhibition of [33P]-S1P binding to the membrane fraction of HEK-293 cells expressing human Edg-1 (S1P1)
[2] = test compound 10 μM, inhibition of [33P]-S1P binding, membrane fraction

T1 sequence (P21453 whole entry): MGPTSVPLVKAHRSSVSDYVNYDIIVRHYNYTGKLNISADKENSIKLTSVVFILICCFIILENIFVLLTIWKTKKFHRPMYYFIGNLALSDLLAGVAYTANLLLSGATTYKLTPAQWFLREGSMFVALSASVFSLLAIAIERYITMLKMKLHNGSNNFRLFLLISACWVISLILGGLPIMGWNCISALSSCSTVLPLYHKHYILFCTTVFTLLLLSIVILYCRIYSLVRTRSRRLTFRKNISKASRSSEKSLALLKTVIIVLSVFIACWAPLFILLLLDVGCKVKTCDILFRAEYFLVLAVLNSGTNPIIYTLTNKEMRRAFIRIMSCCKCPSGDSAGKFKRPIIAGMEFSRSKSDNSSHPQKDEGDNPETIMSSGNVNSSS

SMILES	inhibition at 10 µM [1]	inhibition at 10 µM [2]
CCn1c(Oc2ccc3cc[nH]c3c2)nnc1[C@@H](C)NS(=O)(=O)c1ccc(Br)cc1 [Compound 329]	101%	–
CCn1c(Oc2ccc3cc[nH]c3c2)nnc1[C@@H](C)NS(=O)(=O)c1ccc(C(C)(C)C)cc1 [Compound 330]	81.6%	–
CCn1c(Oc2ccc3cc[nH]c3c2)nnc1[C@@H](C)NS(=O)(=O)c1ccccc1Br [Compound 331]	59.8%	–
CCn1c(Oc2ccc3cc[nH]c3c2)nnc1[C@@H](C)NS(=O)(=O)c1cccc(Br)c1 [Compound 333]	102%	–
CCn1c(Oc2ccc3cc[nH]c3c2)nnc1[C@@H](C)NS(=O)(=O)c1ccc(Cl)cc1 [Compound 335]	106%	–
CCn1c(Oc2ccc3cc[nH]c3c2)nnc1[C@@H](C)NS(=O)(=O)c1ccccc1C#N [Compound 336]	56.8%	–
CCn1c(Oc2ccc3cc[nH]c3c2)nnc1[C@@H](C)NS(=O)(=O)c1cccc(C#N)c1 [Compound 338]	69.2%	–
CCn1c(Oc2ccc3cc[nH]c3c2)nnc1[C@@H](C)NS(=O)(=O)c1sc2ccc(Cl)cc2c1C [Compound 339]	62.8%	–
CCn1c(Oc2ccc3cc[nH]c3c2)nnc1[C@@H](C)NS(=O)(=O)c1cc(C)c(Cl)cc1C [Compound 340]	100%	–
CCn1c(Oc2ccc3cc[nH]c3c2)nnc1[C@@H](C)NS(=O)(=O)c1cc(Cl)ccc1Cl [Compound 341]	92.8%	–
CCn1c(Oc2ccc3cc[nH]c3c2)nnc1[C@@H](C)NS(=O)(=O)c1c(Cl)cccc1Cl [Compound 342]	53.6%	–
CCn1c(Oc2ccc3cc[nH]c3c2)nnc1[C@@H](C)NS(=O)(=O)c1ccc(OC)c(OC)c1 [Compound 343]	86.5%	–
CCc1ccc(S(=O)(=O)N[C@H](C)c2nnc(Oc3ccc4cc[nH]c4c3)n2CC)cc1 [Compound 345]	90.4%	–
CCn1c(Oc2ccc3cc[nH]c3c2)nnc1[C@@H](C)NS(=O)(=O)c1ccc(F)cc1 [Compound 346]	89.2%	–
CCn1c(Oc2ccc3cc[nH]c3c2)nnc1[C@@H](C)NS(=O)(=O)c1c(C)cc(C)cc1C [Compound 347]	50.1%	–
CCn1c(Oc2ccc3cc[nH]c3c2)nnc1[C@@H](C)NS(=O)(=O)c1ccc(OC)cc1 [Compound 348]	109%	–
CCn1c(Oc2ccc3cc[nH]c3c2)nnc1[C@@H](C)NS(=O)(=O)c1ccc(S(C)(=O)=O)cc1 [Compound 350]	75%	–
CCn1c(Oc2ccc3cc[nH]c3c2)nnc1[C@@H](C)NS(=O)(=O)c1cccc2ccccc12 [Compound 352]	88.5%	–
CCn1c(Oc2ccc3cc[nH]c3c2)nnc1[C@@H](C)NS(=O)(=O)CCc1cccc2ccccc12 [Compound 353]	92.3%	–
CCn1c(Oc2ccc3cc[nH]c3c2)nnc1[C@@H](C)NS(=O)(=O)c1ccc(I)cc1 [Compound 355]	98.8%	–

SMILES	inhibition at 10 µM [1]	inhibition at 10 µM [2]
CCn1c(Oc2ccc3cc[nH]c3c2)nnc1[C@@H](C)NS(=O)(=O)/C=C/c1ccccc1 [Compound 356]	95.6%	–
CCn1c(Oc2ccc3cc[nH]c3c2)nnc1[C@@H](C)NS(=O)(=O)c1cc(Cl)c(Cl)cc1Cl [Compound 357]	106%	–
CCn1c(Oc2ccc3cc[nH]c3c2)nnc1[C@@H](C)NS(=O)(=O)c1ccc(C)cc1 [Compound 359]	95.7%	–
CCn1c(Oc2ccc3cc[nH]c3c2)nnc1[C@@H](C)NS(=O)(=O)c1ccccc1C [Compound 361]	96.9%	–
CCn1c(Oc2ccc3cc[nH]c3c2)nnc1[C@@H](C)NS(=O)(=O)c1ccc(OC(F)(F)F)cc1 [Compound 362]	95.1%	–
C=Cc1ccc(S(=O)(=O)N[C@H](C)c2nnc(Oc3ccc4cc[nH]c4c3)n2CC)cc1 [Compound 363]	96.2%	–
CCn1c(Oc2ccc3cc[nH]c3c2)nnc1[C@@H](C)NS(=O)(=O)c1cccc(C)c1 [Compound 364]	87.5%	–
CCn1c(Oc2ccc3cc[nH]c3c2)nnc1[C@@H](C)NS(=O)(=O)c1ccc2c(c1)CN(C(=O)C(F)(F)F)CC2 [Compound 366]	63.2%	–
CCn1c(Oc2ccc3cc[nH]c3c2)nnc1[C@@H](C)NS(=O)(=O)c1cc(C)ccc1C [Compound 367]	94.3%	–
CCn1c(Oc2ccc3cc[nH]c3c2)nnc1[C@@H](C)NS(=O)(=O)c1ccc(-c2csnn2)s1 [Compound 368]	60.5%	–
CCn1c(Oc2ccc3cc[nH]c3c2)nnc1[C@@H](C)NS(=O)(=O)c1ccc(C(=O)OC)n1C [Compound 372]	106%	–
CCCc1ccc(S(=O)(=O)N[C@H](C)c2nnc(Oc3ccc4cc[nH]c4c3)n2CC)cc1 [Compound 377]	73.9%	–
CCn1c(Oc2ccc3cc[nH]c3c2)nnc1[C@@H](C)NS(=O)(=O)c1c(C)c(C)cc(C)c1C [Compound 378]	71.6%	–
CCn1c(Oc2ccc3cc[nH]c3c2)nnc1[C@@H](C)NS(=O)(=O)c1cccc(Cl)c1Cl [Compound 379]	89.2%	–
CCn1c(Oc2ccc3cc[nH]c3c2)nnc1[C@@H](C)NS(=O)(=O)c1cc(C(F)(F)F)cc(C(F)(F)F)c1 [Compound 382]	66.9%	–
CCn1c(Oc2ccc3cc[nH]c3c2)nnc1[C@@H](C)NS(=O)(=O)c1cc(Cl)cc(Cl)c1 [Compound 383]	83.6%	–
CCn1c(Oc2ccc3cc[nH]c3c2)nnc1[C@@H](C)NS(=O)(=O)c1cccc(Cl)c1C [Compound 384]	88.1%	–
CCn1c(Oc2ccc3cc[nH]c3c2)nnc1[C@@H](C)NS(=O)(=O)c1ccc(F)c(Cl)c1 [Compound 385]	98%	–
CCn1c(Oc2ccc3cc[nH]c3c2)nnc1[C@@H](C)NS(=O)(=O)c1cccc(OC)c1 [Compound 386]	84%	–
CCn1c(Oc2ccc3cc[nH]c3c2)nnc1[C@@H](C)NS(=O)(=O)c1cc(F)c(Br)cc1F [Compound 387]	63.5%	–

SMILES	inhibition at 10 µM [1]	inhibition at 10 µM [2]
CCn1c(Oc2ccc3cc[nH]c3c2)nnc1[C@@H](C)NS(=O)(=O)c1c(C)cc(OC)c(C)c1C [Compound 388]	65.8%	–
CCn1c(Oc2ccc3cc[nH]c3c2)nnc1[C@@H](C)NS(=O)(=O)c1cc(Br)ccc1OC [Compound 389]	88%	–
CCn1c(Oc2ccc3cc[nH]c3c2)nnc1[C@@H](C)NS(=O)(=O)c1cc(F)ccc1C [Compound 390]	65.9%	–
CCn1c(Oc2ccc3cc[nH]c3c2)nnc1[C@@H](C)NS(=O)(=O)c1c(C)c(C)c(C)c(C)c1C [Compound 391]	80.4%	–
CCn1c(Oc2ccc3cc[nH]c3c2)nnc1[C@@H](C)NS(=O)(=O)c1ccc(Br)c(Br)c1 [Compound 392]	73.6%	–
CCn1c(Oc2ccc3cc[nH]c3c2)nnc1[C@@H](C)NS(=O)(=O)c1cc(C)ccc1OC [Compound 393]	79.7%	–
CCn1c(Oc2ccc3cc[nH]c3c2)nnc1[C@@H](C)NS(=O)(=O)c1ccc(C#N)cc1 [Compound 395]	–	79.1%
CCn1c(Oc2ccc3cc[nH]c3c2)nnc1[C@@H](C)NS(=O)(=O)c1ccc(Cl)cc1Cl [Compound 398]	–	84.7%
CCn1c(Oc2ccc3cc[nH]c3c2)nnc1[C@@H](C)NS(=O)(=O)c1cc(OC)ccc1OC [Compound 400]	–	75.3%
CCn1c(Oc2ccc3cc[nH]c3c2)nnc1[C@@H](C)NS(=O)(=O)c1cccc(Cl)c1 [Compound 403]	–	72.5%
CCn1c(Oc2ccc3cc[nH]c3c2)nnc1[C@@H](C)NS(=O)(=O)c1ccc(C(C)C)cc1 [Compound 404]	–	60.2%
CCn1c(Oc2ccc3cc[nH]c3c2)nnc1[C@@H](C)NS(=O)(=O)c1cc(F)cc(Cl)c1C [Compound 405]	–	61.4%
CCc1cc(Br)ccc1S(=O)(=O)N[C@H](C)c1nnc(Oc2ccc3cc[nH]c3c2)n1CC [Compound 406]	–	56.3%
CCn1c(Oc2ccc3cc[nH]c3c2)nnc1[C@@H](C)NS(=O)(=O)c1ccc(Br)cc1C [Compound 407]	–	68.2%
CCn1c(Oc2ccc3cc[nH]c3c2)nnc1[C@@H](C)NS(=O)(=O)c1ccc(F)c(F)c1F [Compound 409]	–	74.7%
CCn1c(Oc2ccc3cc[nH]c3c2)nnc1[C@@H](C)NS(=O)(=O)c1cc(F)c(F)cc1Cl [Compound 412]	–	82.5%
CCn1c(Oc2ccc3cc[nH]c3c2)nnc1[C@@H](C)NS(=O)(=O)c1ccc(F)c(F)c1 [Compound 413]	–	95.3%
CCn1c(Oc2ccc3cc[nH]c3c2)nnc1[C@@H](C)NS(=O)(=O)c1ccc(Br)cc1F [Compound 414]	–	92.5%
CCn1c(Oc2ccc3cc[nH]c3c2)nnc1[C@@H](C)NS(=O)(=O)c1cc(F)c(Cl)cc1F [Compound 415]	–	91.5%
CCn1c(Oc2ccc3cc[nH]c3c2)nnc1[C@@H](C)NS(=O)(=O)c1cc(Br)c(F)cc1F [Compound 416]	–	83.2%
